{"source": "ChEMBL document CHEMBL1141926", "about": "“Synthesis and anthelmintic activity of 7-substituted 3,4a-dimethyl-4a,5a,8a,8b-tetrahydro-6H-pyrrolo[3',4':4,5]furo[3,2-b]pyridine-6,8(7H)-diones” (Bioorg Med Chem Lett, 2005)", "key": {"Haemonchus contortus [1]": {"tested_on": "Haemonchus contortus", "experiment": "In vivo percentage Haemonchus contortus egg reduction in sheep at dose 0.10 mg/kg body weight", "assay_type": "functional", "conditions": "dose 0.1 mg/kg"}, "[2]": {"experiment": "Partition coefficient (logP) (HPLC)", "assay_type": "physicochemical", "conditions": "octanol/water"}, "Haemonchus contortus [3]": {"tested_on": "Haemonchus contortus", "experiment": "In vivo percentage Haemonchus contortus egg reduction in sheep at dose. 20 mg/kg body weight", "assay_type": "functional, organism-based", "design": "dose 20 mg/kg", "conditions": "at 20 mg/kg"}, "Haemonchus contortus [4]": {"tested_on": "Haemonchus contortus", "experiment": "In vivo percentage Haemonchus contortus egg reduction in sheep at dose 0.05 mg/kg body weight", "assay_type": "functional"}, "Haemonchus contortus [5]": {"tested_on": "Haemonchus contortus", "experiment": "In vivo percentage Haemonchus contortus egg reduction in sheep at dose 0.25 mg/kg body weight; Range 50-75%", "assay_type": "functional"}, "Haemonchus contortus [6]": {"tested_on": "Haemonchus contortus", "experiment": "In vivo percentage Haemonchus contortus egg reduction in sheep at dose 0.01 mg/kg body weight", "assay_type": "functional"}, "Haemonchus contortus [7]": {"tested_on": "Haemonchus contortus", "experiment": "In vivo percentage Haemonchus contortus egg reduction in sheep at dose 0.25 mg/kg body weight", "assay_type": "functional"}, "Haemonchus contortus [8]": {"tested_on": "Haemonchus contortus", "experiment": "In vivo percentage Haemonchus contortus egg reduction in sheep at dose 20 mg/kg body weight", "assay_type": "functional"}}}
{"compound": "CC1=CC2(C)OC3C(=O)N(C)C(=O)C3C2N=C1", "note": "(stereo not drawn)", "values": [{"measurement": "Reduction", "setting": "Haemonchus contortus [1]", "result": ">=95%"}, {"measurement": "logP", "setting": "[2]", "result": "< 0"}]}
{"compound": "IVERMECTIN", "values": [{"measurement": "Reduction", "setting": "Haemonchus contortus [3]", "result": "> 95", "unit": "%"}]}
{"compound": "CC1=CC2(C)OC3C(=O)N(C4CC4)C(=O)C3C2N=C1", "note": "(stereo not drawn)", "values": [{"measurement": "Reduction", "setting": "Haemonchus contortus [4]", "result": ">=95%"}, {"measurement": "logP", "setting": "[2]", "result": 0.5}]}
{"compound": "CCN1C(=O)[C@H]2[C@@H](O[C@]3(C)C=C(C)C=N[C@@H]23)C1=O", "values": [{"measurement": "Reduction", "setting": "Haemonchus contortus [5]", "result": 75, "unit": "%"}, {"measurement": "logP", "setting": "[2]", "result": 0.46}]}
{"compound": "CC1=CC2(C)OC3C(=O)N(Cc4ccccc4)C(=O)C3C2N=C1", "note": "(stereo not drawn)", "values": [{"measurement": "Reduction", "setting": "Haemonchus contortus [1]", "result": ">=95%"}, {"measurement": "logP", "setting": "[2]", "result": 1.51}]}
{"compound": "CCN1C(=O)C2OC3(C)C=C(C)C=NC3C2C1=O", "note": "(stereo not drawn)", "values": [{"measurement": "Reduction", "setting": "Haemonchus contortus [6]", "result": ">=95%"}, {"measurement": "logP", "setting": "[2]", "result": 0.46}]}
{"compound": "CCN1C(=O)[C@@H]2[C@H](O[C@@]3(C)C=C(C)C=N[C@H]23)C1=O", "values": [{"measurement": "logP", "setting": "[2]", "result": 0.46}, {"measurement": "Reduction", "setting": "Haemonchus contortus [7]", "result": ">=95%"}]}
{"compound": "CC1=CC2(C)OC3C(=O)N([C@@H](C)c4ccccc4)C(=O)C3C2N=C1", "note": "(stereo partly drawn)", "values": [{"measurement": "Reduction", "setting": "Haemonchus contortus [4]", "result": ">=95%"}, {"measurement": "logP", "setting": "[2]", "result": 1.7}]}
{"compound": "CCCCN1C(=O)C2OC3(C)C=C(C)C=NC3C2C1=O", "note": "(stereo not drawn)", "values": [{"measurement": "Reduction", "setting": "Haemonchus contortus [4]", "result": ">=95%"}, {"measurement": "logP", "setting": "[2]", "result": 1.3}]}
{"compound": "COC(=O)Nc1nc2cc(C(=O)c3ccccc3)ccc2[nH]1", "note": "[MEBENDAZOLE]", "values": [{"measurement": "Reduction", "setting": "Haemonchus contortus [8]", "result": ">=95%"}]}
